Experimental data from US10669272B2, “Substituted naphthyridinone compounds useful as T cell activators” (BRISTOL-MYERS SQUIBB COMPANY, priority 2018, dated 2020).
Like-named read-outs stand apart in the source and are kept apart here.

Legend:
[1] = test system: Human venous whole blood; assay: Human whole blood IFN-γ assay; assay type: cell-based; settings: human whole blood, read-out: INFg Whole Blood Normalized Agonist EC50;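 also: blood from healthy donors exposed to compound for 1 h before stimulation with anti-CD3 and anti-CD28 at 1 µg/mL each, IFN-γ quantified in supernatant by AlphaLISA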
Experimental: Human Whole Blood IFN-γ Assay
Human venous whole blood (22.5 μL per well), obtained from healthy donors, was pre-treated with compounds for one hour at 37° C. in a humidified 95% air/5% CO2 incubator. The blood was stimulated with 2.5 μL anti-human CD3 and anti-CD28 mAb at a final concentration of 1 μg/mL each for 24 hours at 37° C. IFN-γ in the supernatants was measured using AlphLISA kit (Cat # AL217).

[2] = biological target: T1, human DGKζ (Homo sapiens, UniProt Q13574); assay: DGKζ LIPGLO assay (extruded liposome substrate), in vitro DGK inhibition; assay type: biochemical; settings: read-out: DGKz LIPGLO IC50
T1 construct: TVMV protease cleavage site (C); Hexa-His (C); made in house; host or cells: Sf9 insect cells (baculovirus, Bac-to-Bac)
T1 sequence (Q13574 with tags, fused parts or gaps isoform Q13574-4): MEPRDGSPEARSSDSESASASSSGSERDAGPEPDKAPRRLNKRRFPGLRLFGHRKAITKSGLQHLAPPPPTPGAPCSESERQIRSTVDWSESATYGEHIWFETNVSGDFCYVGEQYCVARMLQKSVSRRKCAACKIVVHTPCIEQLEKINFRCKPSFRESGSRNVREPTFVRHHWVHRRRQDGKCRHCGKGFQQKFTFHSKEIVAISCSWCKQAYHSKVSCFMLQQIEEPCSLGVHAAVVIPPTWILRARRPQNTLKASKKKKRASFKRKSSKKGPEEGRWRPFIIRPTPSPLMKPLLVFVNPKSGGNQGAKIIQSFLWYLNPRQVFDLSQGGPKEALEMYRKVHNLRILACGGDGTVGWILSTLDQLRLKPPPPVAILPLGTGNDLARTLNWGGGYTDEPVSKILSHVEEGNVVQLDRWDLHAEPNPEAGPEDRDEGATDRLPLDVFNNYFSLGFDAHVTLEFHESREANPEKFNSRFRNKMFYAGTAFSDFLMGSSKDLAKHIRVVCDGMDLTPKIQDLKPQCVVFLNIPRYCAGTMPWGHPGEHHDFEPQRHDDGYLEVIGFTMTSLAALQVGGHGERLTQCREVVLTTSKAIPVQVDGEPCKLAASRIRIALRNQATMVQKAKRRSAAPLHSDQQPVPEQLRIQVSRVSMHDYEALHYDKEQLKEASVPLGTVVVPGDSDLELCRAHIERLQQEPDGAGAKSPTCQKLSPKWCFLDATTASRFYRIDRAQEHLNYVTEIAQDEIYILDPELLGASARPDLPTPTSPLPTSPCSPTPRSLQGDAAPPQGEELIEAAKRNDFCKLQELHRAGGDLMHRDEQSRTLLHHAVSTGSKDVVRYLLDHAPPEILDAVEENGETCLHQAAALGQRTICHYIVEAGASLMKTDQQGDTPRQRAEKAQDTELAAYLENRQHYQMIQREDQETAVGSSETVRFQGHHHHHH

[3] = biological target: T2, human DGKα (Homo sapiens, UniProt P23743); assay: DGKα LIPGLO assay (extruded liposome substrate), in vitro DGK inhibition; assay type: biochemical; settings: read-out: DGKa LIPGLO IC50
T2 construct: TVMV protease cleavage site (C); Hexa-His (C); made in house; host or cells: Sf9 insect cells (baculovirus, Bac-to-Bac)
T2 sequence (P23743 with tags, fused parts or gaps): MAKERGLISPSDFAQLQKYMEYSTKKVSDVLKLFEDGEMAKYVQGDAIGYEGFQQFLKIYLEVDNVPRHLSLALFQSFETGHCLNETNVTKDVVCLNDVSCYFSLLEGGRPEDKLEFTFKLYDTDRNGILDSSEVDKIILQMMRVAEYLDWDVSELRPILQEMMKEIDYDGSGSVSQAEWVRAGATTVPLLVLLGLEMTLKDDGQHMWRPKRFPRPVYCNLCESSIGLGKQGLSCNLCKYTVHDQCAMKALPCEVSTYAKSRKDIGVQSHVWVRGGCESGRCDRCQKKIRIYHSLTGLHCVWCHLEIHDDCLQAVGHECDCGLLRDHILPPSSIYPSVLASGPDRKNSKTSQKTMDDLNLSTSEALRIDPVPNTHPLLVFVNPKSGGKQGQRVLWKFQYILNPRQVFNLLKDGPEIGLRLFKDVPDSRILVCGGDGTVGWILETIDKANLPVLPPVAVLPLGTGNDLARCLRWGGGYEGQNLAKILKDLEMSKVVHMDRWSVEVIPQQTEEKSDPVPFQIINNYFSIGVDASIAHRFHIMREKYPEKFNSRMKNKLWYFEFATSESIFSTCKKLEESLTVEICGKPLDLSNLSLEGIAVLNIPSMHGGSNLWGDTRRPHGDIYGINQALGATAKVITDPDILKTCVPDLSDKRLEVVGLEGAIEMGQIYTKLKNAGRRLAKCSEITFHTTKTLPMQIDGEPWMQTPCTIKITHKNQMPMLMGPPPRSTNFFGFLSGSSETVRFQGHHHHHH

[4] = Homo sapiens, 24 h, normalized to 3 μM reference compound with anti-CD3 plus anti-CD28 as 100% activation
[5] = anti-CD3 plus anti-CD28, 24 hours, 3 μM reference compound = 100% activation
[6] = normalized to 3 μM reference compound with anti-CD3 plus anti-CD28 as 100% activation
[7] = Homo sapiens, 24 h, anti-CD3 plus anti-CD28, 24 hours, 3 μM reference compound = 100% activation

| SMILES | EC50 [1, 4] | IC50 ([2]; liposome (LIPGLO) assay) | IC50 ([3]; liposome (LIPGLO) assay) | EC50 [1, 5] | IC50 ([2]; DGKζ liposome (LIPGLO) assay) | IC50 ([3]; DGKα liposome (LIPGLO) assay) | EC50 [1, 6] | EC50 [1, 7] |
| --- | --- | --- | --- | --- | --- | --- | --- | --- |
| C[C@@H]1CN(c2c(F)c(=O)n(C)c3ccc(C#N)nc23)[C@@H](C)CN1C(c1ccc(F)cc1)c1ccccc1F (stereo partly drawn) [Example 333, 7-fluoro-8-((2S,5R)-4-((2-fluorophenyl)(4-fluorophenyl)methyl)-2,5-dimethylpiperazin-1-yl)-5-methyl-6-oxo-5,6-dihydro-1,5-naphthyridine-2-carbonitrile] | 1.2 µM | 1.1 µM | 0.83 µM |  |  |  |  |  |
| C[C@@H]1CN(c2cc(=O)n(C)c3ccc(C#N)nc23)[C@@H](C)CN1C(c1ccc(F)cc1)c1cnc(C2CC2)s1 (single isomer, unassigned) [Example 728] |  |  |  | 0.92 µM | 0.044 µM | 0.063 µM |  |  |
| C[C@@H]1CN(c2c(C#N)c(=O)n(C)c3ccc(C#N)nc23)CCN1C(c1ccc(F)cc1)c1cnn(C)c1 (stereo partly drawn) [Example 1017] |  |  |  | 3.3 µM | 8.4 µM | 7.2 µM |  |  |
| Cc1cc(C(C)N2C[C@H](C)N(c3c(C#N)c(=O)n(C)c4ccc(C#N)nc34)C[C@H]2C)no1 (single isomer, unassigned) [Example 804] |  |  |  | 20 µM | 32 µM | 6.9 µM |  |  |
| COCCOc1cc(C(C)N2C[C@H](C)N(c3cc(=O)n(C)c4ccc(C#N)nc34)C[C@H]2C)ccc1C#N (single isomer, unassigned) [Example 1321] | 3 µM | 0.31 µM | 7.5 µM |  |  |  |  |  |
| C[C@@H]1CN(c2cc(=O)n(C)c3ccc(C#N)nc23)[C@@H](C)CN1C(c1ccc(F)cc1)c1cccc2ccnn12 (single isomer, unassigned) [Example 695] | 4.9 µM | 0.28 µM | 12 µM |  |  |  |  |  |
| CCC(c1ccc(OC(F)(F)F)cc1)N1C[C@H](CC)N(c2cc(=O)n(C)c3ccc(C#N)nc23)C[C@H]1CC (single isomer, unassigned) [Example 1060] | 2.5 µM | 0.63 µM | 0.34 µM |  |  |  |  |  |
| C[C@H]1CN(C(c2ccc(F)cc2)c2ccon2)[C@H](CO)CN1c1cc(=O)n(C)c2ccc(C#N)nc12 (single isomer, unassigned) [Example 1391] |  | 2 µM | 0.15 µM |  |  |  | 0.7 µM |  |
| CC(c1ccc(F)cn1)N1C[C@H](C)N(c2cc(=O)n(C)c3ccc(C#N)nc23)C[C@H]1C (single isomer, unassigned) [Example 640] |  | 3.9 µM | 0.036 µM |  |  |  | 1.6 µM |  |
| CC[C@@H]1CN(c2cc(=O)n(C)c3ccc(C#N)nc23)[C@@H](C)CN1C(C)c1ccc(C(F)(F)F)cc1F (single isomer, unassigned) [Example 1086] |  | 2.1 µM | 6.2 µM |  |  |  | 2.5 µM |  |
| CC[C@@H]1CN(c2cc(=O)n(C)c3ccc(C#N)nc23)[C@@H](CC)CN1Cc1ccc(F)cc1F [Example 1062] | 0.11 µM | 0.076 µM | 0.058 µM |  |  |  |  |  |
| CC(c1ccc(Br)cc1)N1CCN(c2c(C#N)c(=O)n(C)c3ccc(C#N)nc23)C[C@H]1C (single isomer, unassigned) [Example 975] |  |  |  | 20 µM | 83 µM | 0.33 µM |  |  |
| CC(c1ccc(OC(F)(F)F)cc1)N1C[C@H](C)N(c2cc(=O)n(C)c3ccc(C#N)nc23)C[C@H]1CC#N (single isomer, unassigned) [Example 1411] | 2.2 µM | 1.2 µM | 0.2 µM |  |  |  |  |  |
| CC(c1ccc(C2CC2)cc1F)N1C[C@H](C)N(c2cc(=O)n(C)c3ccc(C#N)nc23)C[C@H]1C (single isomer, unassigned) [Example 1201] | 5.6 µM | 3.4 µM | 13 µM |  |  |  |  |  |
| CC(c1ccc(F)cc1)N1C[C@@H](C)N(c2cc(=O)n(C)c3ccc(C#N)nc23)C[C@@H]1CO (single isomer, unassigned) [Example 1179] |  | 0.85 µM | > 250 µM |  |  |  | 20 µM |  |
| CC[C@H]1CN(C(c2ccc(F)cc2)c2cscn2)[C@H](CC)CN1c1cc(=O)n(C)c2ccc(C#N)nc12 (single isomer, unassigned) [Example 1070] |  | 0.18 µM | 0.013 µM |  |  |  | 1.1 µM |  |
| CC(C)c1ccc(C(C)N2C[C@H](C)N(c3cc(=O)n(C)c4ccc(C#N)nc34)C[C@H]2C)cc1 (single isomer, unassigned) [Example 1234] |  | 1.4 µM | 2.2 µM |  |  |  | 5.4 µM |  |

| SMILES | EC50 [1, 4] | IC50 ([2]; liposome (LIPGLO) assay) | IC50 ([3]; liposome (LIPGLO) assay) | EC50 [1, 5] | IC50 ([2]; DGKζ liposome (LIPGLO) assay) | IC50 ([3]; DGKα liposome (LIPGLO) assay) | EC50 [1, 6] | EC50 [1, 7] |
| --- | --- | --- | --- | --- | --- | --- | --- | --- |
| CC[C@H]1CN(C(c2ccc(F)cc2)c2ccc(C#N)cc2)[C@H](C)CN1c1cc(=O)n(C)c2ccc(C#N)nc12 (stereo partly drawn) [Example 1123] | 2.6 µM | 4.7 µM | 1.2 µM |  |  |  |  |  |
| CC[C@@H]1CN(c2cc(=O)n(C)c3ccc(C#N)nc23)[C@@H](C)CN1C(c1ccc(OC(F)(F)F)cc1)C1CC1 (stereo partly drawn) [Example 1190] | 1.2 µM | 5.9 µM | 2.3 µM |  |  |  |  |  |
| C[C@@H]1CN(c2cc(=O)n(C)c3ccc(C#N)nc23)[C@@H](C)CN1C(c1ccc(F)cc1)c1ncno1 (stereo partly drawn) [Example 755] |  |  |  |  | 61 µM | 2.6 µM |  | 18 µM |
| C[C@@H]1CN(c2c(C#N)c(=O)n(C)c3ccc(C#N)nc23)CCN1C(c1ccc(F)cc1)c1cccc(F)c1 (stereo partly drawn) [Example 881] |  |  |  | 2.1 µM | 3 µM | 5.3 µM |  |  |
| CCc1noc(C(c2ccc(F)cc2)N2C[C@H](C)N(c3cc(=O)n(C)c4ccc(C#N)nc34)C[C@H]2C)n1 (single isomer, unassigned) [Example 753] |  |  |  | 0.64 µM | 0.16 µM | 0.4 µM |  |  |
| CC[C@H]1CN(C(c2ccc(F)cc2)c2cccc(C(F)(F)F)n2)[C@H](CC)CN1c1cc(=O)n(C)c2ccc(C#N)nc12 (single isomer, unassigned) [Example 1045] | 0.17 µM | 0.12 µM | 0.56 µM |  |  |  |  |  |
| CC[C@H]1CN(C(c2ccc(F)cc2)c2ccc(C(F)(F)F)cn2)[C@H](CC)CN1c1cc(=O)n(C)c2ccc(C#N)nc12 (stereo partly drawn) [Example 1039] | 0.091 µM | 0.087 µM | 0.11 µM |  |  |  |  |  |
| COc1cc(C(C)N2C[C@H](C)N(c3cc(=O)n(C)c4ccc(C#N)nc34)C[C@H]2C)ccc1F (single isomer, unassigned) [Example 1231] |  | 0.11 µM | 3.8 µM |  |  |  | 1.2 µM |  |
| CC(c1ccc2nccnc2c1)N1C[C@H](C)N(c2cc(=O)n(C)c3ccc(C#N)nc23)C[C@H]1C (single isomer, unassigned) [Example 651] |  | 0.95 µM | 50 µM |  |  |  | 20 µM |  |
| COc1ccc(C(C)N2C[C@H](C)N(c3c(C#N)c(=O)n(C)c4ccc(C#N)nc34)C[C@H]2C)nc1 (single isomer, unassigned) [Example 800] |  |  |  | 5.9 µM | 0.33 µM | 0.38 µM |  |  |
| C[C@@H]1CN(c2c(C#N)c(=O)n(C)c3ccc(C#N)nc23)CCN1C(c1cccc(Cl)c1)c1ccc(F)cn1 (stereo partly drawn) [Example 926] |  |  |  |  | 4 µM | 2.5 µM |  | 1.2 µM |
| CC(c1ccc(F)c(F)c1)N1CCN(c2c(C#N)c(=O)n(C)c3ccc(C#N)nc23)C[C@H]1C (stereo partly drawn) [Example 956] |  |  |  |  | 7.5 µM | 0.78 µM |  | 4 µM |
| C[C@@H]1CN(c2cc(=O)n(C)c3ccc(C#N)nc23)[C@@H](C)CN1C(c1ccc(F)cc1)c1cscn1 (stereo partly drawn) [Example 721] |  |  |  | 3.5 µM | 1.1 µM | 0.072 µM |  |  |
| C[C@@H]1CN(c2c(C#N)c(=O)n(C)c3ccc(C#N)nc23)CCN1Cc1ccc(Cl)c(Cl)c1 [Example 996] |  |  |  |  | 5.8 µM | 4.1 µM |  | 20 µM |
| CC(c1ccc(F)c(Cl)c1)N1C[C@H](C)N(c2cc(=O)n(C)c3ccc(C#N)nc23)C[C@H]1C (single isomer, unassigned) [Example 1256] |  | 0.18 µM | 0.68 µM |  |  |  | 0.48 µM |  |
| CC(c1ccc(OC(F)(F)F)cc1)N1C[C@H](C)N(c2cc(=O)n(C)c3ccc(C#N)nc23)C[C@H]1CO (single isomer, unassigned) [Example 1386] |  | 2.2 µM | 0.14 µM |  |  |  | 3.9 µM |  |
